Numbers after ± are expanded uncertainties.
Conditions: Liquid, Vibrating tube method

CCCCCCCCCC [decane]
Conditions | mass density [kg/m3]
293.15 K, 34214 kPa | 753.1 ± 2.1
293.15 K, 34239 kPa | 753.1 ± 2.1
293.15 K, 34259 kPa | 753.1 ± 2.1
293.15 K, 34285 kPa | 753.1 ± 2.1
293.15 K, 34303 kPa | 753.1 ± 2.1
293.16 K, 19215 kPa | 743.7 ± 2
293.16 K, 19235 kPa | 743.6 ± 2
293.16 K, 19274 kPa | 743.8 ± 2
293.16 K, 19292 kPa | 743.6 ± 2
293.16 K, 19437 kPa | 743.9 ± 2
293.16 K, 33877 kPa | 753 ± 2.1
303.14 K, 364 kPa | 722.4 ± 2
303.14 K, 380 kPa | 722.3 ± 2
303.14 K, 402 kPa | 722.5 ± 2
303.14 K, 424 kPa | 722.6 ± 2
303.14 K, 441 kPa | 722.6 ± 2
303.14 K, 462 kPa | 722.5 ± 2
303.14 K, 488 kPa | 722.6 ± 2
303.14 K, 520 kPa | 722.6 ± 2
303.14 K, 547 kPa | 722.7 ± 2
303.14 K, 571 kPa | 722.7 ± 2
303.14 K, 602 kPa | 722.8 ± 2
303.14 K, 632 kPa | 722.7 ± 2
303.14 K, 677 kPa | 722.6 ± 2
303.14 K, 720 kPa | 722.8 ± 2
303.14 K, 760 kPa | 722.8 ± 2
303.14 K, 810 kPa | 722.9 ± 2
303.14 K, 862 kPa | 723 ± 2
303.14 K, 904 kPa | 723 ± 2
303.14 K, 946 kPa | 723 ± 2
303.14 K, 997 kPa | 723 ± 2
303.14 K, 1037 kPa | 723 ± 2
303.14 K, 1220 kPa | 723.2 ± 2
303.14 K, 1295 kPa | 723.2 ± 2
303.14 K, 1434 kPa | 723.4 ± 2
303.14 K, 1467 kPa | 723.4 ± 2
303.14 K, 1497 kPa | 723.4 ± 2
303.14 K, 1538 kPa | 723.5 ± 2
303.14 K, 1586 kPa | 723.5 ± 2
303.14 K, 1619 kPa | 723.4 ± 2
303.14 K, 1670 kPa | 723.5 ± 2
303.14 K, 1705 kPa | 723.5 ± 2
303.14 K, 1760 kPa | 723.6 ± 2
303.14 K, 1816 kPa | 723.7 ± 2
303.14 K, 1856 kPa | 723.7 ± 2
303.14 K, 1904 kPa | 723.8 ± 2
303.14 K, 1955 kPa | 723.9 ± 2
303.14 K, 1986 kPa | 724 ± 2
303.14 K, 2021 kPa | 723.9 ± 2
303.14 K, 2067 kPa | 723.9 ± 2
303.14 K, 2099 kPa | 723.9 ± 2
303.14 K, 2132 kPa | 723.9 ± 2
303.14 K, 2177 kPa | 724 ± 2
303.14 K, 2229 kPa | 724 ± 2
303.14 K, 2270 kPa | 723.9 ± 2
303.14 K, 2320 kPa | 724.1 ± 2
303.14 K, 2376 kPa | 724.2 ± 2
303.14 K, 2415 kPa | 724.1 ± 2
303.14 K, 2455 kPa | 724.1 ± 2
303.14 K, 2518 kPa | 724.3 ± 2
303.14 K, 2560 kPa | 724.3 ± 2
303.14 K, 2611 kPa | 724.3 ± 2
303.14 K, 2680 kPa | 724.4 ± 2
303.14 K, 2736 kPa | 724.4 ± 2
303.14 K, 2782 kPa | 724.5 ± 2
303.14 K, 2818 kPa | 724.6 ± 2
303.14 K, 2834 kPa | 724.6 ± 2
303.14 K, 3457 kPa | 725 ± 2
303.14 K, 3518 kPa | 725.1 ± 2
303.15 K, 1065 kPa | 723 ± 2
303.15 K, 1099 kPa | 723.2 ± 2
303.15 K, 1144 kPa | 723.2 ± 2
303.15 K, 1175 kPa | 723.2 ± 2
303.15 K, 1261 kPa | 723.3 ± 2
303.15 K, 1325 kPa | 723.2 ± 2
303.15 K, 1363 kPa | 723.2 ± 2
303.15 K, 1385 kPa | 723.3 ± 2
303.15 K, 2849 kPa | 724.6 ± 2
303.15 K, 2899 kPa | 724.6 ± 2
303.15 K, 2942 kPa | 724.7 ± 2
303.15 K, 2968 kPa | 724.7 ± 2
303.15 K, 3005 kPa | 724.8 ± 2
303.15 K, 3039 kPa | 724.6 ± 2
303.15 K, 3070 kPa | 724.7 ± 2
303.15 K, 3105 kPa | 724.8 ± 2
303.15 K, 3140 kPa | 724.8 ± 2
303.15 K, 3167 kPa | 724.9 ± 2
303.15 K, 3207 kPa | 724.8 ± 2
303.15 K, 3250 kPa | 724.9 ± 2
303.15 K, 3283 kPa | 725 ± 2
303.15 K, 3333 kPa | 724.9 ± 2
303.15 K, 3363 kPa | 725 ± 2
303.15 K, 3400 kPa | 725 ± 2
303.15 K, 3487 kPa | 725.1 ± 2
303.15 K, 3503 kPa | 724.9 ± 2
303.15 K, 3530 kPa | 725.1 ± 2
303.15 K, 3542 kPa | 725 ± 2
303.15 K, 3556 kPa | 725.2 ± 2
303.15 K, 3568 kPa | 725.1 ± 2
303.15 K, 3587 kPa | 725.2 ± 2
303.15 K, 3606 kPa | 725.2 ± 2
303.15 K, 3618 kPa | 725.1 ± 2
303.15 K, 3637 kPa | 725.3 ± 2
303.15 K, 3655 kPa | 725.2 ± 2
303.15 K, 3668 kPa | 725.4 ± 2
303.15 K, 3688 kPa | 725.3 ± 2
303.15 K, 3707 kPa | 725.2 ± 2
303.15 K, 3720 kPa | 725.3 ± 2
303.15 K, 3735 kPa | 725.3 ± 2
303.15 K, 3753 kPa | 725.3 ± 2
303.15 K, 3770 kPa | 725.3 ± 2
303.15 K, 3790 kPa | 725.3 ± 2
303.15 K, 3808 kPa | 725.3 ± 2
303.15 K, 3820 kPa | 725.3 ± 2
303.15 K, 3840 kPa | 725.4 ± 2
303.15 K, 3855 kPa | 725.4 ± 2
303.15 K, 3871 kPa | 725.3 ± 2
303.15 K, 3885 kPa | 725.3 ± 2
303.15 K, 3902 kPa | 725.5 ± 2
303.15 K, 3916 kPa | 725.5 ± 2
303.15 K, 3938 kPa | 725.5 ± 2
303.15 K, 3958 kPa | 725.4 ± 2
303.15 K, 3974 kPa | 725.4 ± 2
303.15 K, 3988 kPa | 725.4 ± 2
303.15 K, 4013 kPa | 725.5 ± 2
303.15 K, 4029 kPa | 725.5 ± 2
303.15 K, 4042 kPa | 725.6 ± 2
303.15 K, 4059 kPa | 725.5 ± 2
303.15 K, 4074 kPa | 725.5 ± 2
303.15 K, 4089 kPa | 725.6 ± 2
303.15 K, 4104 kPa | 725.6 ± 2
303.15 K, 4122 kPa | 725.6 ± 2
303.15 K, 4137 kPa | 725.5 ± 2
303.15 K, 4153 kPa | 725.7 ± 2
303.15 K, 4172 kPa | 725.7 ± 2
303.15 K, 4188 kPa | 725.7 ± 2
